Laboratory results reported in patent US12071411B2, “Inhibitors of HIF-2α and methods of use thereof” (ARCUS BIOSCIENCES, INC., priority 2021, dated 2024).

Columns and labels:
[1] = molecular target: T1, Biotin tagged HIF-2α protein containing PAS-B domain (240-350) (Homo sapiens, UniProt Q99814); assay: HIF-2α Scintillation Proximity Assay (SPA) binding assay; conditions: 50 nM HIF-2α protein, 25 nM 3H-tracer, 2% DMSO
T1 construct: Biotin tagged HIF-2α protein containing PAS-B domain (240-350) was prepared and purified in-house; made in house
T1 sequence (Q99814 240-350): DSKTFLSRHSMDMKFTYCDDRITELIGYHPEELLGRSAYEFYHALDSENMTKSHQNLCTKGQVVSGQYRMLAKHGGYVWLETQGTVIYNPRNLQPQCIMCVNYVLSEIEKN
Procedure: HIF-2α Scintillation Proximity Assay (SPA) Binding Assay:
Biotin tagged HIF-2α protein containing PAS-B domain (240-350) was prepared and purified in-house.
Compounds solubilized in DMSO were dispensed into a white 384-well polystyrene non-binding flat clear bottom plate (Greiner Bio-One, Cat #781903) using an HP D300 dispenser. Ten microliters of biotinylated HIF-2α protein in buffer (25 mM Tris-HCl, pH 7.4, 150 mM NaCl, 0.15% BSA and 0.001% Tween 20) was added to the compound wells and allowed to incubate for 1 hour at room temperature. Ten microliters of SPA bead mix were added to the wells and incubated for an additional 45 minutes, followed by 10 ul of ^3H-tracer solution. Final assay conditions comprised 50 nM HIF-2α protein, 25 nM radiolabeled tracer and 3 ug beads per well with compounds in 2% DMSO. The plate was read using a MicroBeta Microplate Counter (PerkinElmer) for luminescence detection. The IC50 values of the test compounds were determined from compound dose response curves fitted using a standard four parameter fit equation and are reported in Table 2.

HIF-2α [2] = molecular target: T2, HIF-2α (Homo sapiens, UniProt Q99814); assay: HIF-2α Luciferase Reporter Assay (serum free) in HIF-Luc-786-0 cells; type: cell-based; conditions: Opti-MEM, 786-0 reporter cells, 20 hours incubation
T2 sequence (Q99814 whole entry): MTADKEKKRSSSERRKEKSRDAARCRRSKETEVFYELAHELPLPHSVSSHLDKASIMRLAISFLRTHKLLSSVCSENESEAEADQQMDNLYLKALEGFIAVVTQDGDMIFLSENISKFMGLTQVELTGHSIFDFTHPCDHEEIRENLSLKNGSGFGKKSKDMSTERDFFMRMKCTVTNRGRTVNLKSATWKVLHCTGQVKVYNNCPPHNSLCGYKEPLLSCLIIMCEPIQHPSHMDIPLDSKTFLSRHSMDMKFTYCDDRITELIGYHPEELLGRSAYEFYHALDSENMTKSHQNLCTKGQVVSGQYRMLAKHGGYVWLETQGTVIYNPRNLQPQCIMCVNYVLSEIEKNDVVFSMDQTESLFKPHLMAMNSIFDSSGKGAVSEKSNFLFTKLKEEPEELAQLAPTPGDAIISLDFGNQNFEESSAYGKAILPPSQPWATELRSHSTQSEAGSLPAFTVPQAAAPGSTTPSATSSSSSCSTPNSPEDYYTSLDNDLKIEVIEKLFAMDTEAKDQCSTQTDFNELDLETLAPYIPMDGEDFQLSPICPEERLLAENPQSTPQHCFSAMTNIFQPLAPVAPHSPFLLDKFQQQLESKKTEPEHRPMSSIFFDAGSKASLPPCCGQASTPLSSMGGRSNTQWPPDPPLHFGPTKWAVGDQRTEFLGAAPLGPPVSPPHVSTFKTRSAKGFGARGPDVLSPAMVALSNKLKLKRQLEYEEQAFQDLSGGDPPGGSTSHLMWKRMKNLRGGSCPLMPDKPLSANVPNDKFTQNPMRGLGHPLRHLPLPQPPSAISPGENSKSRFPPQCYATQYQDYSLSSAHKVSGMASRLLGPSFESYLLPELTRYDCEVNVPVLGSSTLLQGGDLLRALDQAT
Summary of the method: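 786-0 cells stably transduced with HIF luciferase reporter, 20,000 cells/well in serum-free Opti-MEM, compounds (50 uM downward, 1% DMSO) 20 h at 37 °C. ONE-Glo luminescence normalized to DMSO and no-cell controls; IC50 from four-parameter fit.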

HIF-2α [3] = molecular target: T2, HIF-2α; assay: HIF-2α Luciferase Reporter Assay (serum), HRE-luciferase 786-0 cells in 100% human serum; type: cell-based; conditions: for IC50: 100% human serum, 786-0 reporter cells, overnight incubation, read-out: Serum Potency; for Serum Shift (approximate): ratio of IC50 in 100% serum to IC50 in serum free conditions
Summary of the method: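 786-0 cells stably expressing an HRE-luciferase reporter were plated and rested 3 h. They were then treated overnight at 37 °C with compound diluted in 100% human serum. Serum was replaced with Opti-MEM, ONE-Glo luminescence was read, and IC50 came from a 4-parameter logistic fit.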

| SMILES | IC50 [1] [µM] | IC50 (HIF-2α [2]) [µM] | IC50 (HIF-2α [3]) [µM] | Serum Shift (approximate) (HIF-2α [3]) |
| --- | --- | --- | --- | --- |
| CC(C)(C#N)CCn1nc(C(F)(F)F)c2c1CCC(F)(F)[C@H]2O [Example 1, 4-[(4S)-5,5-Difluoro-4-hydroxy-3-(trifluoromethyl)-6,7-dihydro-4H-indazol-1-yl]-2,2-dimethylbutanenitrile] | 0.1 to 1 | > 1 | > 1 | 2 |
| O[C@H]1c2c(C(F)(F)F)nn(CC3CC3(F)F)c2CCC1(F)F (single isomer, unassigned) [23/24 DIAST-2] | 0.1 to 1 | 0.1 to 1 | > 1 | 10 |
| O[C@H]1c2c(C(F)(F)F)nn(CC3CC(F)(F)C3)c2CCC1(F)F [Example 2, (4S)-1-[(3,3-difluorocyclobutyl)methyl]-5,5-difluoro-3-(trifluoromethyl)-6,7-dihydro-4H-indazol-4-ol] | 0.1 to 1 | 0.1 to 1 | > 1 | 13 |
| O[C@H]1c2c(C(F)(F)F)nn(CCC3CC3(F)F)c2CCC1(F)F (stereo partly drawn) [Example 20, (4S)-1-[2-(2,2-difluorocyclopropyl)ethyl]-5,5-difluoro-3-(trifluoromethyl)-4,5,6,7-tetrahydro-1H-indazol-4-ol] | < 0.1 | < 0.1 | 0.1 to 1 | 7 |
| OC(CCn1nc(C(F)(F)F)c2c1CCC(F)(F)[C@H]2O)C(F)(F)F (stereo partly drawn) [Example 16, (4S)-5,5-difluoro-1-(4,4,4-trifluoro-3-hydroxybutyl)-3-(trifluoromethyl)-6,7-dihydro-4H-indazol-4-ol] | 0.1 to 1 | 0.1 to 1 | > 1 | 22 |
| COCCCn1nc(C(F)(F)F)c2c1CCC(F)(F)[C@H]2O [Example 9, (4S)-5,5-difluoro-1-(3-methoxypropyl)-3-(trifluoromethyl)-6,7-dihydro-4H-indazol-4-ol] | > 1 | > 1 |  |  |
| O[C@H]1c2c(C(F)(F)F)nn(CCC3(C(F)(F)F)CC3)c2CCC1(F)F [Example 5, (4S)-5,5-difluoro-3-(trifluoromethyl)-1-[2-[1-(trifluoromethyl)cyclopropyl]ethyl]-6,7-dihydro-4H-indazol-4-ol] | 0.1 to 1 | 0.1 to 1 | > 1 | 18 |
| O[C@H]1c2c(C(F)(F)F)nn(CCSC(F)(F)F)c2CCC1(F)F [Example 7, (4S)-5,5-difluoro-3-(trifluoromethyl)-1-[2-(trifluoromethylsulfanyl)ethyl]-6,7-dihydro-4H-indazol-4-ol] | < 0.1 | < 0.1 | 0.1 to 1 | 5 |
| O[C@H]1c2c(C(F)(F)F)nn(CC3CC3)c2CCC1(F)F [Example 10, (4S)-1-(cyclopropylmethyl)-5,5-difluoro-3-(trifluoromethyl)-6,7-dihydro-4H-indazol-4-ol] | > 1 | > 1 |  |  |
| COC(C)CCn1nc(C(F)(F)F)c2c1CCC(F)(F)[C@H]2O (stereo partly drawn) [Example 13, (4S)-5,5-difluoro-1-(3-methoxybutyl)-3-(trifluoromethyl)-6,7-dihydro-4H-indazol-4-ol] |  | 0.1 to 1 | 0.1 to 1 | 2 |
| O[C@H]1c2c(C(F)(F)F)nn([C@H]3CC[C@H](F)[C@H](F)C3)c2[C@@H](F)[C@H]1F (single isomer, unassigned) [141/142 DIAST-2] |  | 0.1 to 1 | 0.1 to 1 | 3 |
| O[C@H]1c2c(C(F)(F)F)nn([C@@H]3CC[C@@H](F)[C@@H](F)C3)c2[C@@H](F)[C@H]1F (single isomer, unassigned) [141/142 DIAST-1] |  | 0.1 to 1 | 0.1 to 1 | 4 |

The next lines start with the values.

| IC50 [1] [µM] | IC50 (HIF-2α [2]) [µM] | IC50 (HIF-2α [3]) [µM] | Serum Shift (approximate) (HIF-2α [3]) | SMILES |
| --- | --- | --- | --- | --- |
| 0.1 to 1 | 0.1 to 1 | > 1 | 9 | O[C@H]1c2c(C(F)(F)F)nn(CCC(F)(F)F)c2CCC1(F)F [Example 33, (4S)-5,5-difluoro-3-(trifluoromethyl)-1-(3,3,3-trifluoropropyl)-6,7-dihydro-4H-indazol-4-ol] |
| 0.1 to 1 | < 0.1 | 0.1 to 1 | 10 | CC(F)(F)CCn1nc(C(F)(F)F)c2c1CCC(F)(F)[C@H]2O [Example 32, (4S)-1-(3,3-difluorobutyl)-5,5-difluoro-3-(trifluoromethyl)-6,7-dihydro-4H-indazol-4-ol] |
| < 0.1 | 0.1 to 1 | 0.1 to 1 | 8 | CC(CCn1nc(C(F)(F)F)c2c1CCC(F)(F)[C@H]2O)C(F)(F)F (stereo partly drawn) [Example 38, (4S)-5,5-difluoro-3-(trifluoromethyl)-1-(4,4,4-trifluoro-3-methylbutyl)-6,7-dihydro-4H-indazol-4-ol] |
| > 1 | > 1 |  |  | O[C@H]1c2c(C(F)(F)F)nn(CCOC3CC3(F)F)c2CCC1(F)F (stereo partly drawn) [Example 25, (4S)-1-[2-(2,2-difluorocyclopropoxy)ethyl]-5,5-difluoro-3-(trifluoromethyl)-4,5,6,7-tetrahydro-1H-indazol-4-ol] |
| < 0.1 | < 0.1 | 0.1 to 1 | 3 | O[C@H]1c2c(C(F)(F)F)nn(CCC3CC3(F)F)c2CC1(F)F (stereo partly drawn) [Example 58, (4S)-1-[2-(2,2-difluorocyclopropyl)ethyl]-5,5-difluoro-3-(trifluoromethyl)-4,6-dihydrocyclopenta[c]pyrazol-4-ol] |
| 0.1 to 1 | 0.1 to 1 | > 1 | 6 | CS(=O)(=O)CCn1nc(C(F)(F)F)c2c1CCC(F)(F)[C@H]2O [Example 42, (4S)-5,5-difluoro-1-(2-methylsulfonylethyl)-3-(trifluoromethyl)-6,7-dihydro-4H-indazol-4-ol] |
| > 1 | > 1 |  |  | O[C@H]1c2c(C(F)(F)F)nn([C@H]3CC[C@H](C(F)(F)F)CC3)c2CCC1(F)F [Example 37, (4S)-5,5-difluoro-3-(trifluoromethyl)-1-[4-(trifluoromethyl)cyclohexyl]-6,7-dihydro-4H-indazol-4-ol] |
| > 1 | > 1 | > 1 | 3 | O[C@H]1c2c(C(F)(F)F)nn(CCOC(F)(F)F)c2CCC1(F)F [Example 60, (4S)-5,5-difluoro-1-[2-(trifluoromethoxy)ethyl]-3-(trifluoromethyl)-6,7-dihydro-4H-indazol-4-ol] |
| > 1 | > 1 |  |  | CO[C@H]1c2c(C(F)(F)F)nn(CCCC(F)(F)F)c2CCC1(F)F [Example 47, (4S)-5,5-difluoro-4-methoxy-1-(4,4,4-trifluorobutyl)-3-(trifluoromethyl)-6,7-dihydro-4H-indazole] |
| 0.1 to 1 | 0.1 to 1 |  |  | O[C@H]1c2c(C(F)(F)F)nn(C3CCC(F)(F)CC3)c2CCC1(F)F [Example 36, (4S)-1-(4,4-difluorocyclohexyl)-5,5-difluoro-3-(trifluoromethyl)-6,7-dihydro-4H-indazol-4-ol] |
| 0.1 to 1 | 0.1 to 1 | > 1 | 10 | O[C@H]1c2c(C(F)(F)F)nn(CCC3CC3)c2CCC1(F)F [Example 22, (4S)-1-(2-cyclopropylethyl)-5,5-difluoro-3-(trifluoromethyl)-4,5,6,7-tetrahydro-1H-indazol-4-ol] |
| 0.1 to 1 | > 1 |  |  | O[C@H]1c2c(C(F)(F)F)nn(C[C@H]3C[C@H](F)C3)c2CCC1(F)F [Example 45, (4S)-5,5-difluoro-1-[(3-fluorocyclobutyl)methyl]-3-(trifluoromethyl)-6,7-dihydro-4H-indazol-4-ol] |
| > 1 | > 1 |  |  | CC(CCn1nc(S(C)(=O)=O)c2c1CCC(F)(F)[C@H]2O)C(F)(F)F (stereo partly drawn) [Example 50, (4S)-5,5-difluoro-3-methylsulfonyl-1-(4,4,4-trifluoro-3-methylbutyl)-6,7-dihydro-4H-indazol-4-ol] |
|  | 0.1 to 1 | 0.1 to 1 | 2 | O[C@H]1c2c(C(F)(F)F)nn(CCCOC(F)(F)F)c2C[C@H]1F [Example 62, (4S,5R)-5-fluoro-1-[3-(trifluoromethoxy)propyl]-3-(trifluoromethyl)-5,6-dihydro-4H-cyclopenta[c]pyrazol-4-ol] |
|  | 0.1 to 1 | > 1 | 5 | O[C@H]1c2c(C(F)(F)F)nn(C3CCC(F)(F)C3)c2CC1(F)F (mixture of isomers) [Example 54, (4S)-1-(3,3-difluorocyclopentyl)-5,5-difluoro-3-(trifluoromethyl)-4,6-dihydrocyclopenta[c]pyrazol-4-ol] |
